PMC3714282, “Pharmacometabolomics of Response to Sertraline and to Placebo in Major Depressive Disorder – Possible Role for Methoxyindole Pathway” (PLoS ONE, 2013)

Tests used:
outpatients with MDD = assay: Randomized double-blind 4-week trial, response by 17-item Hamilton Rating Scale for Depression (HAMD17); format: in vivo, human
Description: The 75 patients in this report were a subset of the 165 patients who entered a randomized, double-blind, flexible dosing, placebo-controlled study performed at 12 clinical sites. […] Subjects selected for this study were those with serum samples and HAMD17 scores available at baseline and 1 week and at 4 weeks (+/−1 week) after treatment. Finally, the subset of participants in this study largely overlaps with those used in our previous study.
Study participants were outpatients, 18–65 years of age, from various clinical sites across the United States. […] A complete description of the inclusion and exclusion used in this study can be found in Table S1. The study protocol was developed in accordance with the principles of the Declaration of Helsinki. All patients provided written informed consent. The study was sponsored and monitored by Pfizer, Inc. Each site's institutional review board approved and oversaw the study. The primary outcome measure was the HAMD17, used to assess depressive symptom severity. Measures were gathered at baseline, and weeks 1 and 4 of treatment at the patient's visits. Serum samples were collected using standard protocol at baseline, week 1 and week 4 of treatment at the clinic visits. Whole blood was collected in serum collection tubes and inverted 5–8 times. Serum samples were allowed to clot at room temperature for 60 minutes and then centrifuged at 1,300×g for 15 minutes. Following centrifugation supernatant was frozen at −80°C until analysis.
(§1) Signatures of response to sertraline and placebo were identified by using paired t-tests to compare week 4 metabolite levels to baseline metabolite levels in the responders and non-responders to therapy. […] These analyses were also performed to evaluate changes in ratios of individual metabolites within (e.g., 5-HT/5-HTP) and between branches of tryptophan pathway (e.g., KYN/MEL).

[1] = test system: 5-Methoxytryptamine (5-MTPM); assay: GCTOF-MS measurement of serum 5-Methoxytryptamine (5-MTPM): change from baseline at week 1 and week 4; format: in vivo, human; details: for Change in 5-MTPM levels / Change 5-MTPM: serum; for Change in 5-MTPM levels: four weeks; for Change 5-MTPM: log-transformed concentration
Method: Samples were analyzed using a liquid chromatography electrochemical array (LCECA) platform that has been extensively validated and used in our prior studies in neurodegenerative and psychiatric disorders [30]–[34]. The method includes multiple compounds from the tyrosine, tryptophan, sulfur amino acids and purine pathways, and markers of oxidative stress and protection (for the list of metabolites and abbreviations see Table 1). Levels of 5-Methoxytryptamine (5-MTPM) were measured using a gas chromatography time-of-flight-mass spectrometry (GCTOF-MS) platform. Samples were prepared for analysis as previously described. During the sample preparation, pools were created from equal volumes of subaliquots of all samples. Concentrations of metabolites in the individual samples were expressed as a percentage of the concentration of those metabolites in the averaged pool.
Data preprocessing: We first removed the metabolites that have more than 40% missing values. […] Principal components analysis (PCA; SIMCA-P+12.0) was used to identify outliers. The analysis was performed for each time point. […] Subjects with ≥3 standard deviations away from the center of data cloud within two principal components (PC's) scores scatter plot were considered outliers and were removed from further analysis.
These analyses were conducted separately for the sertraline and placebo groups. Between groups t-tests were used to compare baseline to one week and baseline to four week change scores between the sertraline and placebo groups.
as §1

`CN[C@H]1CC[C@@H](c2ccc(Cl)c(Cl)c2)c2ccccc21` [Sertraline, sertraline] was tested, and the “APC, average percent change in HAMD17 score” value (outpatients with MDD; Female patients) was “Female: APC= -55%”, the “APC, average percent change in HAMD17 score” value (outpatients with MDD; Non-White patients) was “Non-White: APC= -52%” and the “response rate (responders: ≥50% reduction in HAMD17 scores)” value (outpatients with MDD; after four weeks, 21/35 patients, 50-150 mg/day) was 60%. The “Change of 5-MTPM (average change of log-transformed concentration)” value ([1]; after four week of treatment, non-responders) was -0.11, the “Change of 5-MTPM (average change of log-transformed concentration)” value ([1]; after four week of treatment, responders) was -0.42 and the “Change of 5-MTPM (average change of log-transformed concentration)” value ([1]; after one week of treatment, non-responders) was -0.052. The “Change in 5-MTPM levels” value ([1]; good responders to sertraline) was “significant decrease”, the “Change in 5-MTPM levels” value ([1]; non-responders to sertraline) was “not significantly changed” and the “Change 5-MTPM” value ([1]; after four weeks, sertraline group) was −0.29. The “Change 5-MTPM” value ([1]; after one week, responders to sertraline) was -0.21.
